{"source": "patent US9540691B2", "about": "“Assays and methods for selecting a treatment regimen for a subject with depression” (THE GENERAL HOSPITAL CORPORATION, priority 2011, dated 2017)", "key": {"[1]": {"test_system": "MDD patients with at least one rare variant in an indicated SNP biomarker", "conditions": "with an SSRI"}, "[2]": {"test_system": "remitters with MDD at end of double-blind phase", "conditions": "for Relapsers (HAM-D-17 > 15) during 12-month maintenance phase: 15 mg/day 6(S)-5-MTHF as an adjuvant", "procedure": "During each visit, patients are administered the HAM-D-28, the CGI, the QIDS-SR, the SAFTEE-SI, the MGH-CPFQ, and the MGH-SFQ (See, e.g., Table 10 below). […] Subjects are also allowed to change their antidepressant during the course of the follow-up, if deemed appropriate. For patients who refuse the 12 months of free follow-up care, a referral to a psychiatrist is offered."}, "[3]": {"conditions": "CACNA1C rs1006737 (AG), 13(30, 16)"}, "[4]": {"conditions": "COMT (Val 158) rs4633 (CC), 22(18, 9)"}, "[5]": {"conditions": "COMT (Val 158 Met) rs4680 (GG), 33(17, 9)"}, "[6]": {"conditions": "DAT (SLC6A3) rs250682 (CG), 33(33, 15)"}, "[7]": {"conditions": "DNMT38 rs1883729 (AG), 11(13, 8)"}, "[8]": {"conditions": "DNMT38 rs1883729 (AG), 11/13(32, 18)"}, "[9]": {"conditions": "DNMT38 rs1883729 (AG), 13(19, 10)"}, "[10]": {"conditions": "DRD2 (H313H) rs6275 (TT), 11(10, 5)"}, "[11]": {"conditions": "DRD2 (SLC26A9) rs11240594 (AG), 33(36, 20)"}, "[12]": {"conditions": "DRD2 (Taql Br) rs1079596 (TC), 42(18, 11)"}, "[13]": {"conditions": "DRD2 (Taql Br) rs1079596 (TC), 42/44(18, 11)"}, "[14]": {"conditions": "FDRC rs2277820 (TC), 22(30, 15)"}, "[15]": {"conditions": "GCHFR rs7163862 (TA), 41(37, 20)"}, "[16]": {"conditions": "GCHI rs8007267 (TC), 42(22, 10)"}, "[17]": {"conditions": "GCPH or FOLH1 rs202676 (AG), 31(23, 9)"}, "[18]": {"conditions": "MTHFD 1 G1958A (R653Q) rs2236225 (AG), 33(28, 16)"}, "[19]": {"conditions": "MTHFR G1793A rs2274976 (GA), 42(19, 5)"}, "[20]": {"conditions": "PCYT1A rs7639752 (AA), 11(12, 7)"}, "[21]": {"conditions": "RCF1 A > G rs2297291 (AA), 11(12, 7)"}, "[22]": {"conditions": "RCF2 (in SLC19A3) rs12659 (TT), 11(10, 7)"}, "[23]": {"conditions": "RCFI (in SLC19A1) rs1051266 (AA), 44(11, 6)"}}, "note": "Where two headings read alike, the source gives them in different places.", "data": [{"smiles": "CN1c2c(nc(N)[nH]c2=O)NC[C@@H]1CNc1ccc(C(=O)N[C@@H](CCC(=O)O)C(=O)O)cc1", "note": "[6(S)-5-MTHF, 6(S)-5-methyltetrahydrofolate]", "values": [{"measurement": "EFFECT on change in HAMD-28, PHASE I", "setting": "[1]; [3]", "result": "−8.006"}, {"measurement": "EFFECT on change in HAMD-28, PHASE II", "setting": "[1]; [3]", "result": "−2.467"}, {"measurement": "EFFECT on change in HAMD-28, POOLED PHASES", "setting": "[1]; [3]", "result": "−4.633"}, {"measurement": "EFFECT on change in HAMD-28, PHASE I", "setting": "[1]; [4]", "result": "−10.070"}, {"measurement": "EFFECT on change in HAMD-28, PHASE II", "setting": "[1]; [4]", "result": "−10.170"}, {"measurement": "EFFECT on change in HAMD-28, POOLED PHASES", "setting": "[1]; [4]", "result": "−9.240"}, {"measurement": "EFFECT on change in HAMD-28, PHASE I", "setting": "[1]; [5]", "result": "−12.070"}, {"measurement": "EFFECT on change in HAMD-28, PHASE II", "setting": "[1]; [5]", "result": "−10.170"}, {"measurement": "EFFECT on change in HAMD-28, POOLED PHASES", "setting": "[1]; [5]", "result": "−10.880"}, {"measurement": "EFFECT on change in HAMD-28, PHASE I", "setting": "[1]; [6]", "result": "−5.722"}, {"measurement": "EFFECT on change in HAMD-28, PHASE II", "setting": "[1]; [6]", "result": "−5.768"}, {"measurement": "EFFECT on change in HAMD-28, POOLED PHASES", "setting": "[1]; [6]", "result": "−4.996"}, {"measurement": "EFFECT on change in HAMD-28, PHASE I", "setting": "[1]; [7]", "result": "−2.318"}, {"measurement": "EFFECT on change in HAMD-28, PHASE II", "setting": "[1]; [7]", "result": "−5.267"}, {"measurement": "EFFECT on change in HAMD-28, POOLED PHASES", "setting": "[1]; [7]", "result": "−4.811"}, {"measurement": "EFFECT on change in HAMD-28, PHASE I", "setting": "[1]; [8]", "result": "−6.340"}, {"measurement": "EFFECT on change in HAMD-28, PHASE II", "setting": "[1]; [8]", "result": "−4.940"}, {"measurement": "EFFECT on change in HAMD-28, POOLED PHASES", "setting": "[1]; [8]", "result": "−5.360"}, {"measurement": "EFFECT on change in HAMD-28, PHASE I", "setting": "[1]; [9]", "result": "−8.097"}, {"measurement": "EFFECT on change in HAMD-28, PHASE II", "setting": "[1]; [9]", "result": "−4.667"}, {"measurement": "EFFECT on change in HAMD-28, POOLED PHASES", "setting": "[1]; [9]", "result": "−6.748"}, {"measurement": "EFFECT on change in HAMD-28, PHASE I", "setting": "[1]; [10]", "result": "−16.560"}, {"measurement": "EFFECT on change in HAMD-28, PHASE II", "setting": "[1]; [10]", "result": 1.667}, {"measurement": "EFFECT on change in HAMD-28, POOLED PHASES", "setting": "[1]; [10]", "result": "−7.627"}, {"measurement": "EFFECT on change in HAMD-28, PHASE I", "setting": "[1]; [11]", "result": "−5.018"}, {"measurement": "EFFECT on change in HAMD-28, PHASE II", "setting": "[1]; [11]", "result": "−3.424"}, {"measurement": "EFFECT on change in HAMD-28, POOLED PHASES", "setting": "[1]; [11]", "result": "−3.758"}, {"measurement": "EFFECT on change in HAMD-28, PHASE I", "setting": "[1]; [12]", "result": "−10.640"}, {"measurement": "EFFECT on change in HAMD-28, PHASE II", "setting": "[1]; [12]", "result": "−3.893"}, {"measurement": "EFFECT on change in HAMD-28, POOLED PHASES", "setting": "[1]; [12]", "result": "−6.903"}, {"measurement": "EFFECT on change in HAMD-28, PHASE I", "setting": "[1]; [13]", "result": "−10.640"}, {"measurement": "EFFECT on change in HAMD-28, PHASE II", "setting": "[1]; [13]", "result": "−3.893"}, {"measurement": "EFFECT on change in HAMD-28, POOLED PHASES", "setting": "[1]; [13]", "result": "−6.903"}, {"measurement": "EFFECT on change in HAMD-28, PHASE I", "setting": "[1]; [14]", "result": "−2.634"}, {"measurement": "EFFECT on change in HAMD-28, PHASE II", "setting": "[1]; [14]", "result": "−6.232"}, {"measurement": "EFFECT on change in HAMD-28, POOLED PHASES", "setting": "[1]; [14]", "result": "−4.027"}, {"measurement": "EFFECT on change in HAMD-28, PHASE I", "setting": "[1]; [15]", "result": "−6.380"}, {"measurement": "EFFECT on change in HAMD-28, PHASE II", "setting": "[1]; [15]", "result": "−4.542"}, {"measurement": "EFFECT on change in HAMD-28, POOLED PHASES", "setting": "[1]; [15]", "result": "−4.863"}, {"measurement": "EFFECT on change in HAMD-28, PHASE I", "setting": "[1]; [16]", "result": "−7.729"}, {"measurement": "EFFECT on change in HAMD-28, PHASE II", "setting": "[1]; [16]", "result": "−5.417"}, {"measurement": "EFFECT on change in HAMD-28, POOLED PHASES", "setting": "[1]; [16]", "result": "−6.654"}, {"measurement": "EFFECT on change in HAMD-28, PHASE I", "setting": "[1]; [17]", "result": "−7.314"}, {"measurement": "EFFECT on change in HAMD-28, PHASE II", "setting": "[1]; [17]", "result": "−3.300"}, {"measurement": "EFFECT on change in HAMD-28, POOLED PHASES", "setting": "[1]; [17]", "result": "−5.402"}, {"measurement": "EFFECT on change in HAMD-28, PHASE I", "setting": "[1]; [18]", "result": "−2.742"}, {"measurement": "EFFECT on change in HAMD-28, PHASE II", "setting": "[1]; [18]", "result": "−3.762"}, {"measurement": "EFFECT on change in HAMD-28, POOLED PHASES", "setting": "[1]; [18]", "result": "−3.496"}, {"measurement": "EFFECT on change in HAMD-28, PHASE I", "setting": "[1]; [19]", "result": "−5.333"}, {"measurement": "EFFECT on change in HAMD-28, PHASE II", "setting": "[1]; [19]", "result": 2.833}, {"measurement": "EFFECT on change in HAMD-28, POOLED PHASES", "setting": "[1]; [19]", "result": "−5.551"}, {"measurement": "EFFECT on change in HAMD-28, PHASE I", "setting": "[1]; [20]", "result": "−10.400"}, {"measurement": "EFFECT on change in HAMD-28, PHASE II", "setting": "[1]; [20]", "result": "−3.900"}, {"measurement": "EFFECT on change in HAMD-28, POOLED PHASES", "setting": "[1]; [20]", "result": "−6.216"}, {"measurement": "EFFECT on change in HAMD-28, PHASE I", "setting": "[1]; [21]", "result": "−8.778"}, {"measurement": "EFFECT on change in HAMD-28, PHASE II", "setting": "[1]; [21]", "result": "−1.400"}, {"measurement": "EFFECT on change in HAMD-28, POOLED PHASES", "setting": "[1]; [21]", "result": "−5.458"}, {"measurement": "EFFECT on change in HAMD-28, PHASE I", "setting": "[1]; [22]", "result": "−7.571"}, {"measurement": "EFFECT on change in HAMD-28, PHASE II", "setting": "[1]; [22]", "result": "−1.400"}, {"measurement": "EFFECT on change in HAMD-28, POOLED PHASES", "setting": "[1]; [22]", "result": "−4.860"}, {"measurement": "EFFECT on change in HAMD-28, PHASE I", "setting": "[1]; [23]", "result": "−10.000"}, {"measurement": "EFFECT on change in HAMD-28, PHASE II", "setting": "[1]; [23]", "result": "−2.750"}, {"measurement": "EFFECT on change in HAMD-28, POOLED PHASES", "setting": "[1]; [23]", "result": "−7.673"}, {"measurement": "Relapsers (HAM-D-17 > 15) during 12-month maintenance phase", "setting": "[2]; Trial 1 remitters (2 entering)", "result": 0}, {"measurement": "Relapsers (HAM-D-17 > 15) during 12-month maintenance phase", "setting": "[2]; Trial 2 remitters (9 entering)", "result": 0}, {"measurement": "relapse during 12-month maintenance phase (in words)", "setting": "[2]; remitters at end of double-blind phase, adjunctive 15 mg/day", "result": "did not have a relapse"}]}]}
